According to patent US10017546B2 (KOREA ADVANCED INSTITUTE OF SCIENCE AND TECHNOLOGY, priority 2015, dated 2018):
Like-named read-outs stand apart in the source and are kept apart here.

Assays:
[1] = target: Rhizobium etli rhizavidin variant monodin (MA, MA-His6), monomeric, A67D/G71K/A82N/G84Q/S101R/A105K + S23H/Q46E/E115W, SEQ ID NO: 3 (Rhizobium etli, UniProt Q8KKW2, A102N/A125K/A87D/E135W/G104Q/G91K/Q66E/S121R/S43H); assay: Kd measurement by competition binding for [^3H]biotin against RAWH, monodin
Sequence of Rhizobium etli rhizavidin variant monodin (MA, MA-His6), monomeric, A67D/G71K/A82N/G84Q/S101R/A105K + S23H/Q46E/E115W, SEQ ID NO: 3 (Q8KKW2 entry or part of it S43H/Q66E/A87D/G91K/A102N/G104Q/S121R/A125K/E135W): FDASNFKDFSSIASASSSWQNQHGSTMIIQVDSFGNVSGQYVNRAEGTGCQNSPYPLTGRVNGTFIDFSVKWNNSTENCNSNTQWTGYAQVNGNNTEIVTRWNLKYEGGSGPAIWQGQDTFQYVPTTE
Protocol: (§1) Mixtures were incubated at 37° C. for 20 h to reach equilibration. […] After 1 h incubation at room temperature, the beads were cleared by centrifugation at 13,000 rpm for 1 min. […] Samples were heated to 95° C. for 30 min, and then counted in a liquid scintillation counter. The Kd ratios between competing avidin proteins were calculated with Matlab (Mathworks) using the foregoing formula (Qureshi, M. H. & Wong, S. L. Protein Expr. Purif. 25, 409-415 (2002)).

[2] = target: Rhizobium etli rhizavidin variant monodin (MA), monomeric, A67D/G71K/A82N/G84Q/S101R/A105K + S23H/Q46E/E115W, SEQ ID NO: 3 (Rhizobium etli, UniProt Q8KKW2, A102N/A125K/A87D/E135W/G104Q/G91K/Q66E/S121R/S43H); assay: [^3H]biotin off-rate assay, monodin; format: binding; settings: free [^3H]biotin, excess cold biotin, 37° C.
Sequence of Rhizobium etli rhizavidin variant monodin (MA), monomeric, A67D/G71K/A82N/G84Q/S101R/A105K + S23H/Q46E/E115W, SEQ ID NO: 3 (Q8KKW2 entry or part of it S43H/Q66E/A87D/G91K/A102N/G104Q/S121R/A125K/E135W): as above
Protocol: [^3H]Biotin Off-Rate Assay
At time-points taken over 5 h at 37° C., 150 μL of aliquots were removed, and added to 600 μL of 0.2 M ZnSO4 (chilled with ice), followed by addition of 600 μL of 0.2 M NaOH. […] Dissociation rates were deduced as discussed above.

HeLa cells = assay: Clustering and internalization of biotinylated cell-surface proteins; format: cell-based; settings: Cy5-labeled avidin proteins, 37° C.
Protocol: Following biotinylation, the cells were washed twice with cold PBS-CM, treated with 100 mM glycine in PBS-CM for blocking, and washed again twice with cold PBS. […] Unbound avidin proteins were removed, and media was replaced with pre-warmed DMEM (37° C.). Cells were incubated for 5, 10, or 30 m at 37° C. Cells were washed, and fixed with 4% formaldehyde in PBS for confocal imaging (ZEISS, LSM510 META). To visualize endosome or lysozome-specific proteins, cells were fixed, permeabilized, and incubated with a primary antibody: anti-Rab11 (a GTPase of recycling endosome, Abcham) or anti-LAM P1 (Lysosomal-associated membrane protein 1, Abcham). Afterward, cells were incubated with a fluorescent secondary antibody (goat anti-rabbit 555, Abcham), and images were acquired with a confocal microscopy (ZEISS, LSM510 META).

biotin-GFP = biotin-GFP (Aequorea victoria, UniProt P42212, A206V/E111V/F223Y/F64L/F99S/I128T/I167V/I171V/K158E/K166T/K26E/L221H/M153T/N105K/N149D/N164E/Q80R/S205T/S30R/S65T/T225N/V163A/Y145F/Y39I); settings: Biotin-GFP
Protocol: After incubation at the indicated temperature (23° C., 37° C., or 45° C.) for varying time points (between 0 to 10 h), protein-conjugate mixtures were loaded onto a 15% native polyacrylamide gel. […] Data as ln(fraction bound) versus time and fitting the data to a straight line by linear regression.

biotin-DNA = assay: Gel-based off-rate measurement against biotin-DNA-fluorescein; format: binding; settings: 10 h
[3] = target: Rhizobium etli rhizavidin variant RAWH (RAWH-His6), E115W/S23H (Rhizobium etli, UniProt Q8KKW2, E135W/S43H); assay: Kd measurement by competition binding for [^3H]biotin against streptavidin, RAWH
Sequence of Rhizobium etli rhizavidin variant RAWH (RAWH-His6), E115W/S23H (Q8KKW2 entry or part of it S43H/E135W): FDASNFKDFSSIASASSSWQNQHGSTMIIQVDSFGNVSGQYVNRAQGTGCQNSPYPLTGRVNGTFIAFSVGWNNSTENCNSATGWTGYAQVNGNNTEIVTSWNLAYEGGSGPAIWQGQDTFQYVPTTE
Protocol: as §1

Molecule	percentage of dissociated biotin conjugate after 10 h incubation with excess biotin (biotin-GFP; 23° C.)	percentage of dissociated biotin conjugate after 10 h incubation with excess biotin (biotin-GFP; 37° C.)	percentage of dissociated biotin conjugate after 10 h incubation with excess biotin (biotin-DNA; 23° C.)	percentage of dissociated biotin conjugate after 10 h incubation with excess biotin (biotin-DNA; 37° C.)	other results
O=C(O)CCCC[C@@H]1SC[C@@H]2NC(=O)N[C@@H]21 [biotin]					Kd [1]: 0.031 ± 0.01 nM
O=C(O)CCCC[C@@H]1SC[C@@H]2NC(=O)N[C@@H]21 [[^3H]biotin] [listing 1 of 2 here]					off-rate [2]: 1.2±0.3×10^−5 s^−1
Streptavidin (STA): tetrameric streptavidin, purchased from Abcam [reference compound]	4.7 ± 0.3% for 10 h*	22 ± 4.4% for 10 h*	6.8 ± 1.8% for 10 h*	17 ± 1% for 10 h*	incubation time after which avidin protein was internalized (HeLa cells): 10 min; Dissociation rate (biotin-GFP; 45° C., excess biotin): 1.9 ± 0.2 × 10^−5 s^−1; percentage of dissociated biotin conjugate after 10 h incubation with excess biotin (biotin-DNA; 37° C., listed as streptavidin): about 20%
Neutravidin (NA): tetrameric neutravidin (Pierce) [reference compound]	6.8 ± 1.6% for 10 h*	16 ± 3.8% for 10 h*	11 ± 4.4% for 10 h*	20 ± 0.2% for 10 h*	percentage of dissociated biotin conjugate after 10 h incubation with excess biotin (biotin-GFP; 45° C.): 32 ± 5.0% for 10 h*; percentage of dissociated biotin conjugate after 10 h incubation with excess biotin (biotin-DNA; 37° C., listed as neutravidin): about 20%
O=C(O)CCCC[C@@H]1SC[C@@H]2NC(=O)N[C@@H]21 [[^3H]biotin] [listing 2 of 2 here]					Kd [3]: 0.0069 nM
